2 molecules from patent US20240174690A1, “ANNULATED 2-AMINO-3-CYANO THIOPHENES AND DERIVATIVES FOR THE TREATMENT OF CANCER” (BOEHRINGER INGELHEIM INTERNATIONAL GMBH, priority 2021, published 2024) can be followed below.

A short description of data set [1]: Solubility measurement (DMSO solution method), McIlvaine buffer pH 4.5 or 6.8. The format is physicochemical. The settings on record: aqueous buffer, kinetic from dmso stock, DMSO stock diluted to 250 μM, 24 h shaking at ambient temperature. An outline of the steps:
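DMSO stock diluted into McIlvaine buffer, pH 4.5 or 6.8, to 250 µM final, shaken 24 h at ambient temperature. Precipitate removed by filtration; filtrate quantified by LC-UV against a fully dissolved reference in acetonitrile/water 1:1.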

The subject of a further data set is SAS cells. Kind of data set: SAS CTG proliferation assay (120 h) (HNSCC, wt amplified). The format is cell-based. In a few lines:
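SAS cells plated at 300 per well in DMEM:F12 with 10% FCS and left overnight, then given compounds acoustically. After 120 h exposure, viability read by CellTiter-Glo as percent of DMSO control. IC50 from four-parameter non-linear regression.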

A further data set deals with KRAS (G12D)::SOS1 (Homo sapiens (Human), UniProt P01116, G12D). Description: KRAS::SOS1 AlphaScreen binding assay, KRAS G12D. In a few lines: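 AlphaScreen measurement of compound disruption of biotinylated, GDP-loaded KRAS 1-169 (10 nM; G12C 7.5 nM) binding to GST-SOS1 564-1049 (5 nM with G12D/G12C, 10 nM otherwise), with 10 μM GDP in PBS/0.1% BSA/0.05% Tween 20. Timing was 30 min compound preincubation, then 60 min with beads at room temperature; top concentration 100 μM, 4-parameter IC50.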
On the technique in general: Alpha assays give light when donor and acceptor beads are brought close together.

A short description of data set [2]: Plasma protein binding assay (PPB), equilibrium dialysis, 10% FCS in PBS. The format is in vitro ADME. The settings on record: bovine, read-out: PPB 10% FCS (% fu). In a few lines: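 Equilibrium dialysis (5-10 kg/mol cut-off membrane) of 1-10 μmol/L test compound in 10% FCS/PBS against PBS with or without dextran, 3-5 h at 37° C. Compound in each chamber quantified by LC-MS after protein precipitation; fu calculated from Cserum and Cbuffer.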
For orientation: In equilibrium dialysis only unbound substance equilibrates across the membrane.

Where [3] appears, read: McIlvaine buffer pH 4.5, read-out: solubility pH 4.5.
The mark [4] stands for this setting: McIlvaine buffer pH 6.8, read-out: solubility pH 6.8.

Values after ≈ are worked out from the molar mass of the structure shown. Where two headings read alike, the source gives them in different places. Where only a bound is given, the exact number is not on record here.

KRAS (G12D)::SOS1, sequence (P01116 other isoform, or with tags, fused parts or gaps G12D): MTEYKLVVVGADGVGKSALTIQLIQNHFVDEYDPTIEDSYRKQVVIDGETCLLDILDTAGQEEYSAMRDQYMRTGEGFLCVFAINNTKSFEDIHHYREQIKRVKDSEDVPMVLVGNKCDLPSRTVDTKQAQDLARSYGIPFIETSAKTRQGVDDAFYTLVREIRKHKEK

Regarding `C[C@H](Oc1cc(-n2cc(-c3cccnc3)nn2)nc(-c2noc3c2CCC[C@@]32CCCc3sc(N)c(C#N)c32)n1)[C@@H]1CCCN1C` [II-123], the solubility at 24 h in data set [1] (setting [3]) and in data set [1] (setting [4]) was under 1 µg/mL throughout. Besides, the IC50 (in general, the midpoint of a concentration-inhibition curve) in the data set on SAS cells came to 113 nM; at KRAS (G12D)::SOS1, 8 nM. In addition, the fraction unbound in data set [2] was 0.11.

With `C[C@H](Oc1cc(-n2cc(Cn3cncn3)nn2)nc(-c2noc3c2CCC[C@@]32CCCc3sc(N)c(C#N)c32)n1)[C@@H]1CCCN1C` [II-124], the solubility (as a rule, the dissolved amount per volume that the medium holds) at 24 h is over 148 µg/mL in data set [1] (setting [3]) and 108 µg/mL (≈ 169 µM) in data set [1] (setting [4]). Moreover, the IC50 in the data set on SAS cells stood at 68 nM; at KRAS (G12D)::SOS1, 2 nM. For the same molecule, the fraction unbound in data set [2] came out at 0.4.
